# Measured values reported in the supplement of paper PMC4862054.
# Key:
# MCF-10A [1] = conditions: 72 h
# How it was run: (§1)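 Breast cancer cell lines in 20 µl suspension were added to 384-well plates already holding compound at 5 concentrations, spaced in 10-fold steps across a compound-specific 10,000-fold range, and incubated for 72 h. CellTox Green fluorescence (485/520 nm) was read first to measure cell death, followed by CellTiter-Glo luminescence for viability after 10 min at room temperature. Each plate was normalised to 0.1 % DMSO and a positive kill control. EC50 values came from dose-response curve fits and were censored at the top concentration.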
# BT-474 [2] = conditions: 72 h
# How it was run: as §1
# HDQ-P1 [3] = conditions: 72 h
# How it was run: as §1
# MDA-MB-231 [4] = conditions: 72 h
# How it was run: as §1
# BT-549 [5] = conditions: 72 h
# How it was run: as §1
# MCF-10A [6] = conditions: 72 h; remark: listed apart in the source
# Experimental: (§2)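 Drug sensitivity and resistance testing (DSRT) of breast cancer cell lines in 384-well plates, 5 concentrations in 10-fold dilutions over a compound-specific 10,000-fold range. After 72 h, cytotoxicity was read by CellTox Green fluorescence and viability by CellTiter-Glo luminescence (multiplexed), normalised to DMSO and benzethonium chloride controls. EC50 is the inflection point of the fitted dose-response curve (bottom asymptote free, so it can be relative for partial curves) and is censored at the highest tested concentration. Rows with DSS 0 (no meaningful response) were excluded.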
# MDA-MB-468 [7] = conditions: 72 h
# Experimental: as §2
# MDA-MB-231 [8] = conditions: 72 h; remark: listed apart in the source
# Experimental: as §2
# CAL-148 [9] = test: normalised viability (% of control), CellTiter-Blue; higher = more viable cells (100 = DMSO, 0 = benzethonium chloride kill control); conditions: incubation time: 72 h
# How it was run: (§3)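 The reported figure is normalised viability at a single listed concentration of the series. Breast cancer cell lines (20 µl suspension) went onto 384-well plates holding compound in 5 µl medium for 72 h. CellTiter-Blue (2.5 µl, 2 h, 37 °C) was read by fluorescence at 560/590 nm, and each plate was scaled to vehicle at 100 and a positive kill control at 0.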
# SK-BR-3 [10] = test: as above; conditions: incubation time: 72 h
# How it was run: as §3
# CAL-120 [11] = test: as above; conditions: incubation time: 72 h
# How it was run: as §3
# DU-4475 [12] = test: as above; conditions: incubation time: 72 h
# How it was run: as §3
# CAL-51 [13] = test: as above; conditions: incubation time: 72 h
# How it was run: as §3
# Hs578T [14] = test: as above; conditions: incubation time: 72 h
# How it was run: as §3
# MDA-MB-436 [15] = test: as above; conditions: incubation time: 72 h
# How it was run: as §3
# BT-474 [16] = test: as above; conditions: incubation time: 72 h
# How it was run: as §3
# HDQ-P1 [17] = test: as above; conditions: incubation time: 72 h
# How it was run: as §3
# HCC1937 [18] = test: as above; conditions: incubation time: 72 h
# How it was run: as §3
# HCC1599 [19] = test: as above; conditions: incubation time: 72 h
# How it was run: as §3
# MDA-MB-468 [20] = test: as above; conditions: incubation time: 72 h
# How it was run: as §3
# HCC1143 [21] = test: as above; conditions: incubation time: 72 h
# How it was run: as §3
# MDA-MB-231 [22] = test: as above; conditions: incubation time: 72 h
# How it was run: as §3
# MFM-223 [23] = test: as above; conditions: incubation time: 72 h
# How it was run: as §3
# BT-549 [24] = test: as above; conditions: incubation time: 72 h
# How it was run: as §3
# CAL-85-1 [25] = test: as above; conditions: incubation time: 72 h
# How it was run: as §3
# MDA-MB-453 [26] = test: as above; conditions: incubation time: 72 h
# How it was run: as §3
# CAL-148 [27] = test: normalised response (% of control), CellTiter-Glo; higher = more viable cells (100 = DMSO, 0 = benzethonium chloride kill control); conditions: incubation time: 72 h
# How it was run: (§4)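 Two readouts were taken after 72 h: CellTox Green fluorescence (485/520 nm) first, then CellTiter-Glo luminescence after 10 min at room temperature. Breast cancer cell lines had been seeded as 20 µl suspension into 384-well plates holding compound at 5 concentrations in 10-fold steps across a compound-specific 10,000-fold range. Each value is a normalised signal at a single concentration, with plates scaled to 0.1 % DMSO (100) and a positive kill control (0).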
# SK-BR-3 [28] = test: as above; conditions: incubation time: 72 h
# How it was run: as §4
# CAL-120 [29] = test: as above; conditions: incubation time: 72 h
# How it was run: as §4
# DU-4475 [30] = test: as above; conditions: incubation time: 72 h
# How it was run: as §4
# MCF-10A [31] = test: as above; conditions: incubation time: 72 h
# How it was run: as §4
# CAL-51 [32] = test: as above; conditions: incubation time: 72 h
# How it was run: as §4
# Hs578T [33] = test: as above; conditions: incubation time: 72 h
# How it was run: as §4
# MDA-MB-436 [34] = test: as above; conditions: incubation time: 72 h
# How it was run: as §4
# BT-474 [35] = test: as above; conditions: incubation time: 72 h
# How it was run: as §4
# HDQ-P1 [36] = test: as above; conditions: incubation time: 72 h
# How it was run: as §4
# HCC1937 [37] = test: as above; conditions: incubation time: 72 h
# How it was run: as §4
# HCC1599 [38] = test: as above; conditions: incubation time: 72 h
# How it was run: as §4
# MDA-MB-468 [39] = test: as above; conditions: incubation time: 72 h
# How it was run: as §4
# HCC1143 [40] = test: as above; conditions: incubation time: 72 h
# How it was run: as §4
# MDA-MB-231 [41] = test: as above; conditions: incubation time: 72 h
# How it was run: as §4
# MFM-223 [42] = test: as above; conditions: incubation time: 72 h
# How it was run: as §4
# BT-549 [43] = test: as above; conditions: incubation time: 72 h
# How it was run: as §4
# CAL-85-1 [44] = test: as above; conditions: incubation time: 72 h
# How it was run: as §4
# MDA-MB-453 [45] = test: as above; conditions: incubation time: 72 h
# How it was run: as §4
smiles,measurement,setting,value
CCC(C)(C)C(=O)O[C@H]1C[C@@H](C)C=C2C=C[C@H](C)[C@H](CC[C@@H]3C[C@@H](O)CC(=O)O3)[C@H]21 [Simvastatin],"EC50, CellTiter-Glo",MCF-10A [1],6390 nM
same,"EC50, CellTiter-Glo",BT-474 [2],1200 nM
same,"EC50, CellTiter-Glo",HDQ-P1 [3],1700 nM
same,"EC50, CellTiter-Glo",MDA-MB-231 [4],3150 nM
same,"EC50, CellTiter-Glo",BT-549 [5],> 10000 nM
same,"EC50, CellTox Green",MCF-10A [6],2590 nM
same,"EC50, CellTox Green",MDA-MB-468 [7],511 nM
same,"EC50, CellTox Green",MDA-MB-231 [8],1680 nM
Oc1nc(-c2ccc(C(F)(F)F)cc2)nc2c1CSCC2 [XAV-939] (1 nM),normalised viability,CAL-148 [9],101%
same,normalised viability,SK-BR-3 [10],99.3%
same,normalised viability,CAL-120 [11],97.7%
same,normalised viability,DU-4475 [12],119%
same,normalised viability,CAL-51 [13],102%
same,normalised viability,Hs578T [14],89.6%
same,normalised viability,MDA-MB-436 [15],119%
same,normalised viability,BT-474 [16],84.9%
same,normalised viability,HDQ-P1 [17],97.3%
same,normalised viability,HCC1937 [18],84%
same,normalised viability,HCC1599 [19],141%
same,normalised viability,MDA-MB-468 [20],104%
same,normalised viability,HCC1143 [21],97.6%
same,normalised viability,MDA-MB-231 [22],100%
same,normalised viability,MFM-223 [23],107%
same,normalised viability,BT-549 [24],99.4%
same,normalised viability,CAL-85-1 [25],93.8%
same,normalised viability,MDA-MB-453 [26],106%
same,normalised response,CAL-148 [27],92.4%
same,normalised response,SK-BR-3 [28],99.2%
same,normalised response,CAL-120 [29],97.1%
same,normalised response,DU-4475 [30],104%
same,normalised response,MCF-10A [31],101%
same,normalised response,CAL-51 [32],97.6%
same,normalised response,Hs578T [33],97.1%
same,normalised response,MDA-MB-436 [34],107%
same,normalised response,BT-474 [35],99.7%
same,normalised response,HDQ-P1 [36],98.9%
same,normalised response,HCC1937 [37],97.2%
same,normalised response,HCC1599 [38],95.8%
same,normalised response,MDA-MB-468 [39],99.1%
same,normalised response,HCC1143 [40],100%
same,normalised response,MDA-MB-231 [41],101%
same,normalised response,MFM-223 [42],102%
same,normalised response,BT-549 [43],95.8%
same,normalised response,CAL-85-1 [44],104%
same,normalised response,MDA-MB-453 [45],97.6%
